What follows are compounds tested on phospho-p90 RSK (RSK1 Thr359/Ser363) in A375 (Braf V600E) cells (assay: Phospho-p90 RSK ELISA using A375 (Braf V600E) cells). Settings: Homo sapiens, A-375, 2 hours compound treatment, read-out: Cellular Phospho-p90RSK IC50.
Format: cell-based
Procedure: In preparation for the assay, an ELISA plate with the pre-coated goat anti-mouse antibody (Thermo Scientific) was treated with a mouse anti-human RSK1 antibody (monoclonal, Invitrogen) at 1:800 dilution (150 ng/well) in PBS, and the plate was placed on a plate shaker at 4° C. overnight. […] After two […] of the compound treatment, the supernatant was removed from the cell plate, and cells were lysed in 100 μl per well of cell lysis buffer (Cell Signaling Technologies) containing phosphatase and protease inhibitors (Cell Signaling Technologies) on a plate shaker at 4° C. for 20 minutes. The ELISA plate was washed four times with ELISA wash buffer (Thermo Scientific) prior to addition of 100 μL cell lysate. The lysate was incubated on the ELISA plate with gentle shaking at room temperature for 2 hours. The contents of the wells were removed, and the ELISA plate was washed four times with wash buffer, and incubated with 100 μL per well of anti-phospho-RSK1 (Thr359/Ser363) rabbit monoclonal antibody (Millipore) at dilution of 1:1000 in StartingBlock buffer (Thermo Scientific) on a plate shaker at room temperature for 1 hour. The contents of the wells were removed, the ELISA plate was washed four times with wash buffer, and was incubated with 100 μL per well of goat anti-rabbit HRP (Thermo Scientific) at dilution of 1:3000 in StartingBlock buffer (Thermo Scientific) on a plate shaker at room temperature for 1 hour. The contents of the wells were removed, the ELISA plate was washed four times with wash buffer, and then incubated with 100 μL per well of TMB substrate solution (Thermo Scientific) on a plate shaker at room temperature for 20 minutes. Finally, 100 μL of TMB stop solution (Thermo Scientific) was added to each well and the absorbance is measured at 450 nm on a Tecan plate reader.
For `O=C1Nc2cc3[nH]nc(N4CCOCC4)c3cc2CN1Cc1cccc(Cl)c1` [Example 78], the IC50 was ≤ 250 nM.
With `Cc1cc(-c2n[nH]c3cc4c(cc23)CN([C@@H]2CN(CCC#N)C[C@H]2c2ccccc2)C(=O)N4)ccn1` (mixture of isomers) [Example 356] the IC50 was ≤ 250 nM.
With `Cc1cc(-c2n[nH]c3cc4c(cc23)CN(CCN)C(=O)N4)ccn1` [Example 83] the IC50 was > 1000 nM.
With `CCN1CC[C@@H](N2Cc3cc4c(-c5ccnc(C)c5)n[nH]c4cc3NC2=O)C1` [Example 256] the IC50 was > 1000 nM.
In the case of `Cc1cc(-c2n[nH]c3cc4c(cc23)CN([C@H]2CN(CC(F)F)C[C@@H]2c2ccccc2)C(=O)N4)cc(C)n1` [Example 385], the IC50 is reported as > 1000 nM.
In the case of `Cc1cc(-c2n[nH]c3cc4c(cc23)CN(Cc2cccc(C#N)c2)C(=O)N4)ccn1` [Example 55], the IC50 is reported as ≤ 250 nM.
With `COc1ncc(-c2n[nH]c3cc4c(cc23)CN([C@H](C)c2cccc(Cl)c2)C(=O)N4)cn1` [Example 71] the IC50 was ≤ 250 nM.
`Cc1cc(-c2n[nH]c3cc4[nH]c(=O)c(C5CCCN(Cc6cc(F)ccc6F)C5)cc4cc23)ccn1` (centres unmarked) [Example 336] was tested, and the IC50 was ≤ 250 nM.
`COc1ncc(-c2n[nH]c3cc4c(cc23)CN(Cc2cccc(C#N)c2)C(=O)N4)cn1` [Example 125] showed an IC50 of 250 to 1000 nM.
In the case of `O=C1Nc2cc3[nH]nc(-c4ccc5nncn5c4)c3cc2CN1Cc1cccc(Cl)c1` [Example 59], the IC50 is reported as > 1000 nM.
Compound `COc1ncc(-c2n[nH]c3cc4c(cc23)CN([C@H](C)c2cccc(C#N)c2)C(=O)N4)cn1` [Example 100] has an IC50 of 250 to 1000 nM.
`O=C1Nc2cc3[nH]nc(-c4ccnnc4)c3cc2CN1[C@@H]1CN(CC(F)(F)F)C[C@H]1c1ccccc1` [Example 340] was tested, and the IC50 was ≤ 250 nM.
For `O=C1Nc2cc3[nH]nc(-c4ccc(F)cc4)c3cc2CN1Cc1ccc(F)c(Cl)c1` [Example 40], the IC50 was > 1000 nM.
`Cc1ncc(-c2n[nH]c3cc4c(cc23)CN([C@@H]2CN(CC(F)(F)F)C[C@H]2c2ccccc2)C(=O)N4)cn1` [Example 349] was tested, and the IC50 was ≤ 250 nM.
With `Cc1cc(-c2n[nH]c3cc4c(cc23)CN(CC2CCC2)C(=O)N4)ccn1` [Example 253] the IC50 was ≤ 250 nM.
`Cc1cc(-c2n[nH]c3cc4c(cc23)CN(C2CN(Cc3ccccc3)C2)C(=O)N4)ccn1` [Example 191] gave an IC50 of 250 to 1000 nM.
Work on `Cc1cc(-c2n[nH]c3cc4c(cc23)CN([C@@H]2CCC[C@H](NCc3ccccc3)C2)C(=O)N4)ccn1` [Example 177] yielded an IC50 of 250 to 1000 nM.
In the case of `Cc1cc(-c2n[nH]c3cc4[nH]c(=O)c(C5CCCN(Cc6ccccc6)C5)cc4cc23)cc(C)n1` (centres unmarked) [Example 360], the IC50 is reported as 250 to 1000 nM.
In the case of `COc1ccc(-c2n[nH]c3cc4c(cc23)CN([C@@H]2CCN(CC(F)(F)F)C2)C(=O)N4)cn1` [Example 277], the IC50 is reported as ≤ 250 nM.
With `Cc1cc(-c2n[nH]c3cc4c(cc23)CN([C@@H]2CCCN(Cc3cc(C(C)(C)C)no3)C2)C(=O)N4)ccn1` [Example 186] the IC50 was 250 to 1000 nM.
For `CC(c1ccccc1)c1cc2cc3c(N4CCN(C)CC4)n[nH]c3cc2[nH]c1=O` (centres unmarked) [Example 358], the IC50 was > 1000 nM.
In the case of `O=C1Nc2cc3[nH]nc(-c4ccc(=O)[nH]c4)c3cc2CN1Cc1cccc(Cl)c1` [Example 61], the IC50 is reported as > 1000 nM.
With `Cc1cc(-c2n[nH]c3cc4c(cc23)CN([C@@H]2CCN(C)C2)C(=O)N4)ccn1` [Example 255] the IC50 was > 1000 nM.
With `Cc1cc(-c2n[nH]c3cc4c(cc23)CN(CCc2cccc(Cl)c2)C(=O)N4)ccn1` [Example 50] the IC50 was ≤ 250 nM.
With `Cn1cc(-c2n[nH]c3cc4c(cc23)CN([C@@H]2CN(CC(F)(F)F)C[C@H]2c2ccccc2)C(=O)N4)cn1` [Example 352] the IC50 was ≤ 250 nM.
With `Cn1cc(-c2n[nH]c3cc4c(cc23)CN([C@@H]2CCCN(Cc3cccs3)C2)C(=O)N4)cn1` [Example 298] the IC50 was ≤ 250 nM.
In the case of `Cc1cc(-c2n[nH]c3cc4c(cc23)CN(C2CCOCC2)C(=O)N4)ccn1` [Example 44], the IC50 is reported as 250 to 1000 nM.
In the case of `Cc1cc(-c2n[nH]c3cc4c(cc23)CN(C(C)C2CCCC2)C(=O)N4)ccn1` (centres unmarked) [Example 294], the IC50 is reported as ≤ 250 nM.
`Cc1cc(-c2n[nH]c3cc4c(cc23)CN([C@H]2CN(CC(F)(F)F)C[C@@H]2c2ccccc2)C(=O)N4)ccn1` [Example 303] was tested, and the IC50 was > 1000 nM.
In the case of `O=C1Nc2cc3[nH]nc(-c4ccncc4)c3cc2CN1[C@@H]1CN(CC(F)(F)F)C[C@H]1c1ccccc1` [Example 342], the IC50 is reported as ≤ 250 nM.
`Cc1cc(-c2n[nH]c3cc4c(cc23)CN([C@H]2CCCN(Cc3ccccc3)C2)C(=O)N4)cc(C)n1` [Example 363] was tested, and the IC50 was > 1000 nM.
`Cc1cc(-c2n[nH]c3cc4c(cc23)CN(Cc2ccccc2)C(=O)N4)ccn1` [Example 372] was tested, and the IC50 was ≤ 250 nM.
`O=C1Nc2cc3[nH]nc(-c4cccnc4)c3cc2CN1[C@@H]1CN(CC(F)(F)F)C[C@H]1c1ccccc1` [Example 341] was tested, and the IC50 was ≤ 250 nM.
`Cn1nccc1-c1n[nH]c2cc3c(cc12)CN(Cc1cccc(Cl)c1)C(=O)N3` [Example 235] was tested, and the IC50 was > 1000 nM.
With `Cc1cc(-c2n[nH]c3cc4c(cc23)CN(CCN(C)C)C(=O)N4)ccn1` [Example 46] the IC50 was > 1000 nM.
For `Cc1cc(-c2n[nH]c3cc4c(cc23)CN([C@@H]2CCCN(Cc3cnn(C)c3)C2)C(=O)N4)ccn1` [Example 133], the IC50 was > 1000 nM.
Compound `Cc1cc(-c2n[nH]c3cc4c(cc23)CN([C@@H]2CCCN(CC(=O)C(C)(C)C)C2)C(=O)N4)ccn1` [Example 203] has an IC50 of 250 to 1000 nM.
`Cc1ccc(-c2n[nH]c3cc4c(cc23)CN(Cc2cccc(Cl)c2)C(=O)N4)cn1` [Example 58] was tested, and the IC50 was ≤ 250 nM.
`Cc1cc(-c2n[nH]c3cc4c(cc23)CN([C@H]2CN(C(C)C)C[C@@H]2c2ccccc2)C(=O)N4)ccn1` [Example 296] was tested, and the IC50 was > 1000 nM.
For `Cc1ncccc1-c1n[nH]c2cc3[nH]c(=O)c(C(C)c4ccccc4)cc3cc12` (centres unmarked) [Example 335], the IC50 was > 1000 nM.
For `Cc1cc(-c2n[nH]c3cc4c(cc23)CN(CC2CC2)C(=O)N4)ccn1` [Example 258], the IC50 was ≤ 250 nM.
With `Cc1cc(-c2n[nH]c3cc4c(cc23)CN([C@@H]2CCCN(C(C)C)C2)C(=O)N4)ccn1` [Example 247] the IC50 was > 1000 nM.
In the case of `COc1cccc(F)c1CN1CCC[C@@H](N2Cc3cc4c(-c5ccnnc5)n[nH]c4cc3NC2=O)C1` [Example 126], the IC50 is reported as ≤ 250 nM.
`COc1ncc(-c2n[nH]c3cc4c(cc23)CN([C@H](C)c2ccc(Cl)cc2)C(=O)N4)cn1` [Example 95] gave an IC50 of 250 to 1000 nM.
In the case of `Cc1cc(-c2n[nH]c3cc4c(cc23)CN([C@@H]2CN(CC(F)(F)F)C[C@H]2C)C(=O)N4)ccn1` (racemic) [Example 302], the IC50 is reported as ≤ 250 nM.
With `O=C1Nc2cc3[nH]nc(-c4ccnnc4)c3cc2CN1CCc1ccc(F)cc1` [Example 110] the IC50 was 250 to 1000 nM.
Compound `Cc1cc(-c2n[nH]c3cc4c(cc23)CN(C2CCC(=O)N(Cc3ccccc3)C2)C(=O)N4)ccn1` (centres unmarked) [Example 232] has an IC50 of 250 to 1000 nM.
`Cc1cc(-c2n[nH]c3cc4c(cc23)CN(Cc2ccccc2Cl)C(=O)N4)ccn1` [Example 217] was tested, and the IC50 was ≤ 250 nM.
`Cc1cc(-c2n[nH]c3cc4c(cc23)CN(CC2CCCN(Cc3ccccc3)C2)C(=O)N4)ccn1` (centres unmarked) [Example 208] was tested, and the IC50 was > 1000 nM.
With `Cc1cc(-c2n[nH]c3cc4c(cc23)CN(C2CCOC(C)(C)C2)C(=O)N4)ccn1` (centres unmarked) [Example 219] the IC50 was 250 to 1000 nM.
Work on `Cc1cc(-c2n[nH]c3cc4c(cc23)CN([C@@H]2CCCN(C(=O)c3ccccc3)C2)C(=O)N4)ccn1` [Example 172] yielded an IC50 of 250 to 1000 nM.
In the case of `COc1cc(-c2n[nH]c3cc4c(cc23)CN([C@@H]2CN(C)C[C@H]2c2ccccc2)C(=O)N4)ccn1` (mixture of isomers) [Example 354], the IC50 is reported as ≤ 250 nM.
Work on `Cc1cc(-c2n[nH]c3cc4c(cc23)CN([C@@H]2CCCN(Cc3ncccc3C)C2)C(=O)N4)ccn1` [Example 168] yielded an IC50 of 250 to 1000 nM.
